≈ marks a conversion by molar mass, not a printed value.

What all share (assay type): functional
The subject of one experiment is Cryptococcus neoformans. Put plainly: Antifungal activity against Cryptococcus neoformans CGMCC 2.3161 assessed as inhibition of visible growth.
In another experiment the test system is Nakaseomyces glabratus. The experiment can be described thus: Antifungal activity against Clinical isolate Candida glabrata assessed as inhibition of visible growth.
Another experiment has as its system Pichia kudriavzevii. The experiment can be described thus: Antifungal activity against Candida krusei AS 2.1045 assessed as inhibition of visible growth.
In experiment [1] the test system is Candida albicans. The experiment can be described thus: Antifungal activity against Candida albicans SC 5314 assessed as inhibition of visible growth.
The subject of experiment [2] is Candida albicans. Put plainly: Antifungal activity against Candida albicans CPCC 400616 assessed as inhibition of visible growth.
For the next experiment, the system named is Candida parapsilosis. The experiment can be described thus: Antifungal activity against Candida parapsilosis GIM 2.190 assessed as inhibition of visible growth. The note with it: Lodderomyces parapsilosis.
The test system of the next experiment is Candida tropicalis. Put plainly: Antifungal activity against Candida tropicalis CGMCC 2.3739 assessed as inhibition of visible growth.

Consider `CN(Cc1ccc(-c2ccc(C(C)(C)C)cc2)cn1)CC(O)(Cn1cncn1)c1ccc(F)cc1F` (stereo unspecified), for which the MIC80 in the experiment on Cryptococcus neoformans is 0.012 µg/mL (≈ 0.0244 µM); with Nakaseomyces glabratus, 0.2 µg/mL (≈ 0.407 µM); in the experiment on Pichia kudriavzevii, 0.1 µg/mL (≈ 0.203 µM); in the experiment with Candida albicans [1], 0.012 µg/mL (≈ 0.0244 µM); in the experiment on Candida albicans [2], 0.025 µg/mL (≈ 0.0509 µM); in the experiment with Candida parapsilosis it was 0.012 µg/mL (≈ 0.0244 µM). Besides, the MIC80 with Candida tropicalis was found to be 0.006 µg/mL (≈ 0.0122 µM).

Consider `CN(Cc1ccc(-c2ccc(Cl)cc2)cn1)CC(O)(Cn1cncn1)c1ccc(F)cc1F` (stereo unspecified), for which the MIC80 with Cryptococcus neoformans amounted to 0.025 µg/mL (≈ 0.0532 µM); with Nakaseomyces glabratus, 0.05 µg/mL (≈ 0.106 µM); in the experiment on Pichia kudriavzevii it was 0.05 µg/mL (≈ 0.106 µM); in the experiment on Candida albicans [1], 0.012 µg/mL (≈ 0.0255 µM); in the experiment with Candida albicans [2], 0.012 µg/mL (≈ 0.0255 µM); with Candida parapsilosis, 0.006 µg/mL (≈ 0.0128 µM). Further, the MIC80 in the experiment on Candida tropicalis was found to be 0.012 µg/mL (≈ 0.0255 µM).

Consider `CN(Cc1cnc(-c2ccc(Cl)cc2)s1)CC(O)(Cn1cncn1)c1ccc(F)cc1F` (stereo unspecified), for which the MIC80 in the experiment with Cryptococcus neoformans was found to be 1.6 µg/mL (≈ 3.36 µM); in the experiment on Nakaseomyces glabratus, 1.6 µg/mL (≈ 3.36 µM); in the experiment with Pichia kudriavzevii it was 1.6 µg/mL (≈ 3.36 µM); in the experiment on Candida albicans [1], 0.2 µg/mL (≈ 0.42 µM); in the experiment with Candida albicans [2], 0.2 µg/mL (≈ 0.42 µM); in the experiment with Candida parapsilosis, 0.4 µg/mL (≈ 0.84 µM). Further, in the experiment on Candida tropicalis, the MIC80 is 0.4 µg/mL (≈ 0.84 µM).

Consider `COc1ccc(-c2ccc(CN(C)CC(O)(Cn3cncn3)c3ccc(F)cc3F)nc2)cc1` (stereo unspecified), for which the MIC80 is 0.4 µg/mL (≈ 0.859 µM) with Cryptococcus neoformans; 0.4 µg/mL (≈ 0.859 µM) with Nakaseomyces glabratus; 0.1 µg/mL (≈ 0.215 µM) in the experiment with Pichia kudriavzevii; 0.012 µg/mL (≈ 0.0258 µM) in the experiment on Candida albicans [1]; 0.012 µg/mL (≈ 0.0258 µM) in the experiment with Candida albicans [2]; 0.025 µg/mL (≈ 0.0537 µM) in the experiment with Candida parapsilosis. Besides, the MIC80 in the experiment on Candida tropicalis came out at 0.012 µg/mL (≈ 0.0258 µM).

Turning to `CN(Cc1ccc(-c2ccccc2F)cn1)CC(O)(Cn1cncn1)c1ccc(F)cc1F` (stereo unspecified), the MIC80 came to 0.1 µg/mL (≈ 0.221 µM) in the experiment on Cryptococcus neoformans; 0.8 µg/mL (≈ 1.76 µM) with Nakaseomyces glabratus; 0.4 µg/mL (≈ 0.882 µM) in the experiment on Pichia kudriavzevii; 0.012 µg/mL (≈ 0.0265 µM) with Candida albicans [1]; 0.025 µg/mL (≈ 0.0551 µM) in the experiment on Candida albicans [2]; 0.012 µg/mL (≈ 0.0265 µM) in the experiment on Candida parapsilosis. Also, the MIC80 with Candida tropicalis stood at 0.012 µg/mL (≈ 0.0265 µM).

Consider `CN(Cc1ccc(-c2ccc(Cl)cc2)c(F)c1)CC(O)(Cn1cncn1)c1ccc(F)cc1F` (stereo unspecified), for which the MIC80 in the experiment with Cryptococcus neoformans worked out at 0.012 µg/mL (≈ 0.0246 µM); in the experiment with Nakaseomyces glabratus, 0.025 µg/mL (≈ 0.0513 µM); in the experiment on Pichia kudriavzevii it was 0.025 µg/mL (≈ 0.0513 µM); with Candida albicans [1] it was 0.006 µg/mL (≈ 0.0123 µM); with Candida albicans [2], 0.006 µg/mL (≈ 0.0123 µM); with Candida parapsilosis, 0.006 µg/mL (≈ 0.0123 µM). Also, in the experiment with Candida tropicalis, the MIC80 came to 0.006 µg/mL (≈ 0.0123 µM).

Regarding `OC(CN(Cc1ccc(-c2ccc(Cl)cc2)cc1)C1CC1)(Cn1cncn1)c1ccc(F)cc1F` (stereo unspecified), the MIC80 in the experiment on Cryptococcus neoformans, with Nakaseomyces glabratus, in the experiment with Pichia kudriavzevii, with Candida albicans [1], with Candida albicans [2] and with Candida parapsilosis was over 3.2 µg/mL in each case. Also, in the experiment with Candida tropicalis, the MIC80 is over 3.2 µg/mL.

With `[2H]C([2H])([2H])N(Cc1ccc(-c2ccc(Cl)cc2)cc1)CC(O)(Cn1cncn1)c1ccc(F)cc1F` (stereo unspecified), the MIC80 was found to be 0.012 µg/mL (≈ 0.0254 µM) in the experiment with Cryptococcus neoformans; 0.012 µg/mL (≈ 0.0254 µM) with Nakaseomyces glabratus; 0.012 µg/mL (≈ 0.0254 µM) with Pichia kudriavzevii; 0.006 µg/mL (≈ 0.0127 µM) with Candida albicans [1]; 0.006 µg/mL (≈ 0.0127 µM) in the experiment with Candida albicans [2]; 0.006 µg/mL (≈ 0.0127 µM) in the experiment with Candida parapsilosis. Moreover, the MIC80 in the experiment on Candida tropicalis was determined as 0.006 µg/mL (≈ 0.0127 µM).

Regarding `CN(Cc1ccc(-c2cccc(F)c2)cn1)CC(O)(Cn1cncn1)c1ccc(F)cc1F` (stereo unspecified), the MIC80 in the experiment on Cryptococcus neoformans was 0.05 µg/mL (≈ 0.11 µM); with Nakaseomyces glabratus, 0.8 µg/mL (≈ 1.76 µM); in the experiment on Pichia kudriavzevii it was 0.2 µg/mL (≈ 0.441 µM); in the experiment on Candida albicans [1] it was 0.025 µg/mL (≈ 0.0551 µM); in the experiment with Candida albicans [2], 0.025 µg/mL (≈ 0.0551 µM); in the experiment with Candida parapsilosis, 0.012 µg/mL (≈ 0.0265 µM). In addition, in the experiment with Candida tropicalis, the MIC80 is 0.012 µg/mL (≈ 0.0265 µM).

`CN(Cc1ccc(-c2ccc(C(F)(F)F)cc2)o1)CC(O)(Cn1cncn1)c1ccc(F)cc1F` (stereo unspecified): the MIC80 in the experiment on Cryptococcus neoformans was 0.4 µg/mL (≈ 0.812 µM); with Nakaseomyces glabratus it was 0.2 µg/mL (≈ 0.406 µM); with Pichia kudriavzevii it was 0.2 µg/mL (≈ 0.406 µM); in the experiment on Candida albicans [1], 0.025 µg/mL (≈ 0.0508 µM); with Candida albicans [2], 0.025 µg/mL (≈ 0.0508 µM); in the experiment on Candida parapsilosis, 0.05 µg/mL (≈ 0.102 µM). In the experiment with Candida tropicalis, the MIC80 amounted to 0.012 µg/mL (≈ 0.0244 µM).

In the case of `CN(Cc1nc(-c2ccc(OC(F)(F)F)cc2)cs1)CC(O)(Cn1cncn1)c1ccc(F)cc1F` (stereo unspecified), the MIC80 with Cryptococcus neoformans is 0.1 µg/mL (≈ 0.19 µM); with Nakaseomyces glabratus, 0.4 µg/mL (≈ 0.761 µM); in the experiment on Pichia kudriavzevii it was 0.2 µg/mL (≈ 0.381 µM); with Candida albicans [1], 0.012 µg/mL (≈ 0.0228 µM); in the experiment with Candida albicans [2] it was 0.025 µg/mL (≈ 0.0476 µM); in the experiment with Candida parapsilosis, 0.025 µg/mL (≈ 0.0476 µM). In addition, in the experiment on Candida tropicalis, the MIC80 amounted to 0.025 µg/mL (≈ 0.0476 µM).

Turning to `CN(Cc1ccc(-c2ccc(Cl)cc2)o1)CC(O)(Cn1cncn1)c1ccc(F)cc1F` (stereo unspecified), the MIC80 in the experiment with Cryptococcus neoformans turned out to be 0.4 µg/mL (≈ 0.872 µM); in the experiment on Nakaseomyces glabratus, 0.4 µg/mL (≈ 0.872 µM); with Pichia kudriavzevii it was 0.4 µg/mL (≈ 0.872 µM); with Candida albicans [1] it was 0.025 µg/mL (≈ 0.0545 µM); in the experiment with Candida albicans [2], 0.05 µg/mL (≈ 0.109 µM); in the experiment on Candida parapsilosis, 0.1 µg/mL (≈ 0.218 µM). The MIC80 in the experiment with Candida tropicalis was determined as 0.025 µg/mL (≈ 0.0545 µM).

`CN(Cc1ccc(-c2ccc(OC(F)(F)F)cc2)cc1)CC(O)(Cn1cncn1)c1ccc(F)cc1F` (stereo unspecified): the MIC80 is 0.012 µg/mL (≈ 0.0231 µM) in the experiment with Cryptococcus neoformans; 0.025 µg/mL (≈ 0.0482 µM) with Nakaseomyces glabratus; 0.025 µg/mL (≈ 0.0482 µM) with Pichia kudriavzevii; 0.012 µg/mL (≈ 0.0231 µM) with Candida albicans [1]; 0.012 µg/mL (≈ 0.0231 µM) with Candida albicans [2]; 0.006 µg/mL (≈ 0.0116 µM) in the experiment on Candida parapsilosis. In the experiment on Candida tropicalis, the MIC80 is 0.012 µg/mL (≈ 0.0231 µM).
